Laboratory results published in patent publication US10463644B2, “Uses of sesquiterpene lactone compounds and their derivatives in drugs preparation” (ACCENDATECH, priority 2013, dated 2019).
Like-named read-outs stand apart in the source and are kept apart here.

How the values were obtained:
[1] = system: cancer stem cells; test: Survival rate of cancer stem cells after test compound is added (flow cytometry, Annexin V-FITC/PI, clinical specimen); format: cell-based, patient; details: Homo sapiens, 18 h
Summary of the method: (§1)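 Patient tumour or leukaemia cells, identified by cancer-specific stem-cell markers (CD34+/CD38+ for AML), are treated with compound for 18 hours in serum-free IMDM. Apoptosis is then measured as Annexin V-FITC/PI staining by flow cytometry.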

[2] = system: cancer cells; test: Survival rate of cancer cells after test compound is added (flow cytometry, Annexin V-FITC/PI, clinical specimen); format: cell-based, patient; details: Homo sapiens, 18 h, read-out: Survival rate (%) All cells (Stem cells and ordinary cells)
Summary of the method: as §1

[3] = system: IL-1β secreted by synoviocyte; test: Content of IL-1β in culture supernatant of synoviocyte of RA model rats given test compound; format: in vivo; details: rat RA model, dose 30 mg/kg.2d; normal control 0.16 ± 0.034, NaCl 0.49 ± 0.136
Summary of the method: (§2)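 Animals with induced RA are grouped and dosed with compound (30 mg/kg.2d) alongside NaCl and normal controls. Synoviocytes are prepared and cultured, and supernatants are harvested. TNF-α and PGE2 secretion are then quantified by one procedure, IL-1β by another.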

[4] = system: TNF-α secreted by synoviocyte; test: Content of TNF-α in culture supernatant of synoviocyte of RA model rats given test compound; format: in vivo; details: rat RA model, dose 30 mg/kg.2d; normal control 0.38 ± 0.027, NaCl 0.74 ± 0.098
Summary of the method: as §2

[5] = system: PGE2 secreted by synoviocyte; test: Content of PGE2 in culture supernatant of synoviocyte of RA model rats given test compound; format: in vivo; details: rat RA model, dose 30 mg/kg.2d; normal control 8.34 ± 1.29, NaCl 32.44 ± 10.32
Summary of the method: as §2

[6] = Head and neck squamous cell carcinomas

C=C1C(=O)O[C@H]2[C@H]1CCC(C)=C1CC[C@@](C)(OC(=O)CCCc3cn(CCCCCCO)nn3)[C@@H]12 [Compound 21]
viability at 10 µM ([1]; AML): 66%
viability at 20 µM ([1]; AML): 47%
viability at 10 µM ([1]; Brain glioma): 68%
viability at 20 µM ([1]; Brain glioma): 53%
viability at 10 µM ([1]; Brain tumor): 65%
viability at 20 µM ([1]; Brain tumor): 54%
viability at 10 µM ([1]; Breast cancer): 62%
viability at 20 µM ([1]; Breast cancer): 55%
viability at 10 µM ([1]; CLL): 51%
viability at 20 µM ([1]; CLL): 48%
viability at 10 µM ([1]; CML): 75%
viability at 20 µM ([1]; CML): 56%
viability at 10 µM ([1]; Children hepatoblastoma): 74%
viability at 20 µM ([1]; Children hepatoblastoma): 57%
viability at 10 µM ([1]; Colon adenocarcinoma): 58%
viability at 20 µM ([1]; Colon adenocarcinoma): 44%
viability at 10 µM ([1]; Colorectal cancer): 73%
viability at 20 µM ([1]; Colorectal cancer): 58%
viability at 10 µM ([1]; Gastric cancer): 56%
viability at 20 µM ([1]; Gastric cancer): 45%
viability at 10 µM ([1]; Gastrointestinal tumor): 64%
viability at 20 µM ([1]; Gastrointestinal tumor): 46%
viability at 10 µM ([1]; Glioma): 78%
viability at 20 µM ([1]; Glioma): 67%
viability at 10 µM [1, 6]: 75%
viability at 20 µM [1, 6]: 66%
viability at 10 µM ([1]; Laryngeal cancer): 66%
viability at 20 µM ([1]; Laryngeal cancer): 52%
viability at 10 µM ([1]; Liver cancer): 64%
viability at 20 µM ([1]; Liver cancer): 55%
viability at 10 µM ([1]; Lung adenocarcinoma): 58%
viability at 20 µM ([1]; Lung adenocarcinoma): 49%
viability at 10 µM ([1]; Lung cancer): 63%
viability at 20 µM ([1]; Lung cancer): 54%
viability at 10 µM ([1]; Malignant melanoma): 59%
viability at 20 µM ([1]; Malignant melanoma): 45%
viability at 10 µM ([1]; Nasopharynx cancer): 55%
viability at 20 µM ([1]; Nasopharynx cancer): 42%
viability at 10 µM ([1]; Ovarian cancer): 56%
viability at 20 µM ([1]; Ovarian cancer): 49%
viability at 10 µM ([1]; Pancreatic cancer): 57%
viability at 20 µM ([1]; Pancreatic cancer): 50%
viability at 10 µM ([1]; Prostate cancer): 68%
viability at 20 µM ([1]; Prostate cancer): 57%
viability at 10 µM ([1]; Retinoblastoma): 56%
viability at 20 µM ([1]; Retinoblastoma): 47%
viability at 10 µM ([1]; Skin cancer): 56%
viability at 20 µM ([1]; Skin cancer): 47%
viability at 10 µM ([2]; AML): 75%
viability at 20 µM ([2]; AML): 56%
viability at 10 µM ([2]; Brain glioma): 79%
viability at 20 µM ([2]; Brain glioma): 68%
viability at 10 µM ([2]; Brain tumor): 75%
viability at 20 µM ([2]; Brain tumor): 62%
viability at 10 µM ([2]; Breast cancer): 72%
viability at 20 µM ([2]; Breast cancer): 66%
viability at 10 µM ([2]; CLL): 63%
viability at 20 µM ([2]; CLL): 62%
viability at 10 µM ([2]; CML): 82%
viability at 20 µM ([2]; CML): 69%
viability at 10 µM ([2]; Children hepatoblastoma): 81%
viability at 20 µM ([2]; Children hepatoblastoma): 66%
viability at 10 µM ([2]; Colon adenocarcinoma): 71%
viability at 20 µM ([2]; Colon adenocarcinoma): 56%
viability at 10 µM ([2]; Colorectal cancer): 78%
viability at 20 µM ([2]; Colorectal cancer): 67%
viability at 10 µM ([2]; Gastric cancer): 67%
viability at 20 µM ([2]; Gastric cancer): 55%
viability at 10 µM ([2]; Gastrointestinal tumor): 75%
viability at 20 µM ([2]; Gastrointestinal tumor): 58%
viability at 10 µM ([2]; Glioma): 87%
viability at 20 µM ([2]; Glioma): 78%
viability at 10 µM [2, 6]: 86%
viability at 20 µM [2, 6]: 82%
viability at 10 µM ([2]; Laryngeal cancer): 73%
viability at 20 µM ([2]; Laryngeal cancer): 61%
viability at 10 µM ([2]; Liver cancer): 77%
viability at 20 µM ([2]; Liver cancer): 61%
viability at 10 µM ([2]; Lung adenocarcinoma): 67%
viability at 20 µM ([2]; Lung adenocarcinoma): 64%
viability at 10 µM ([2]; Lung cancer): 74%
viability at 20 µM ([2]; Lung cancer): 68%
viability at 10 µM ([2]; Malignant melanoma): 69%
viability at 20 µM ([2]; Malignant melanoma): 56%
viability at 10 µM ([2]; Nasopharynx cancer): 65%
viability at 20 µM ([2]; Nasopharynx cancer): 56%
viability at 10 µM ([2]; Ovarian cancer): 64%
viability at 20 µM ([2]; Ovarian cancer): 57%
viability at 10 µM ([2]; Pancreatic cancer): 66%
viability at 20 µM ([2]; Pancreatic cancer): 62%
viability at 10 µM ([2]; Prostate cancer): 77%
viability at 20 µM ([2]; Prostate cancer): 65%
viability at 10 µM ([2]; Retinoblastoma): 65%
viability at 20 µM ([2]; Retinoblastoma): 59%
viability at 10 µM ([2]; Skin cancer): 64%
viability at 20 µM ([2]; Skin cancer): 57%
Content of IL-1β in culture supernatant of synoviocyte (x ± s) [3]: 0.36 ± 0.057 ng/mL
Content of TNF-α in culture supernatant of synoviocyte (x ± s) [4]: 0.56 ± 0.034 ng/mL
Content of PGE2 in culture supernatant of synoviocyte (x ± s) [5]: 19.59 ± 3.25 ng/mL
